The target in assay [1] is T1, hIL-18:ectvIL-18BP complex (Homo sapiens, UniProt Q14116).
T1 construct: Mature human IL-18 was cloned into a modified pET vector containing a C-terminal 6x His tag; 6x His (C); made in house; host or cells: E. coli BL21 gold (DE3) with biotin ligase for hIL-18; E. coli BL21 (DE3) Rosetta-Gami 2 for MBP-ectvIL-18BP
T1 sequence (Q14116 37-193): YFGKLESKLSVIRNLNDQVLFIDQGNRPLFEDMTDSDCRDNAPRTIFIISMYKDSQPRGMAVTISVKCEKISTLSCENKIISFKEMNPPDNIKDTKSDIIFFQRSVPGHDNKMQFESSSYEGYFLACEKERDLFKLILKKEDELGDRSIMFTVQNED
Kind of assay: biochemical. Format: binding, human; ectromelia virus. As to conditions: for IC50: 5% DMSO, read-out: IC50, inhibition of hIL-18:ectvIL-18BP complex formation.

Assay [2] concerns hIL-18 induced IFN-γ production in human KG-1 cells. Briefly: IFN-γ bioassay (hIL-18 induced IFN-γ production in KG-1 cells). Format: cell-based. The conditions noted are these: for inhibition of hIL-18 activities (IFN-γ secretion): KG-1 cells, 1 uM inhibitor, increasing hIL-18 (Fig. 4).

Molecules are shown by their SMILES.

One may read the Ki as a measure of affinity in units of concentration, obtained from inhibition or displacement. The IC50 is the concentration needed to halve the response being measured. Broadly, the EC50 is the concentration needed to bring the measured effect to its halfway point.

As for `O=C(Nc1cccc(-c2nc3ccccc3[nH]2)c1)c1ccc(C(=O)Nc2cccc(-c3nc4ccccc4[nH]3)c2)cc1` [NSC61610, 1-N,4-N-bis[3-(1H-benzimidazol-2-yl)phenyl]benzene-1,4-dicarboxamide], in assay [1], the Ki came to 200 nM, the “fold difference of calculated Ki (ELISA) vs predicted Autodock Ki” value is “approximately 2 fold” and the half-inhibitory concentration (IC50) worked out at 6000 nM. Moreover, the “inhibition of hIL-18 activities (IFN-γ secretion)” value (shortened to “inhibition of hIL-18 activities”) in assay [2] is listed as “small inhibitory effect”.
As to `N#Cc1ccc(NC(=O)Nc2ccc(Oc3ccc(NC(=O)Nc4ccc(C#N)cc4)cc3)cc2)cc1` [NSC80734, 1-(4-cyanophenyl)-3-[4-[4-[(4-cyanophenyl)carbamoylamino]phenoxy]phenyl]urea], in assay [1], the Ki is 1800 nM, the “fold difference of calculated Ki (ELISA) vs predicted Autodock Ki” value was “approximately 4 fold” and the half-maximal inhibitory concentration (IC50) was 52000 nM. For the same compound, the EC50 in assay [2] (Homo sapiens, KG-1 cells 1 × 10^6 cells ml^−1, constant hIL-18, 24 hr, read-out: EC50, inhibition of hIL-18 induced IFN-γ production) is ~250 nM. Besides, in assay [2], the “inhibition of hIL-18 activities” value is on record as “best inhibition”.
Consider `CCOC(=O)c1ccc(Nc2sc(C(=O)c3cccc([N+](=O)[O-])c3)c(N)c2C#N)cc1` [NSC201631, ethyl 4-[[4-amino-3-cyano-5-(3-nitrobenzoyl)thiophen-2-yl]amino]benzoate], for which, in assay [1], the Ki is 1600 nM, the “fold difference of calculated Ki (ELISA) vs predicted Autodock Ki” value is reported as “approximately 2 fold” and the IC50 worked out at 44000 nM. Also, the “inhibition of hIL-18 activities” value in assay [2] is “did not inhibit hIL-18 activities”.

The record behind these values is PMC5428663, “Identification of small molecule inhibitors of Interleukin-18” (Scientific Reports, 2017).
